Columns and labels:
[1] = Concentration required to inhibit 50% of human carcinoma CH1 cell lines; type: functional, cell-based
A2780 = test: Concentration required to inhibit 50% of human carcinoma A2780 cell lines; type: functional, cell-based
SK-OV-3 = test: Concentration required to inhibit 50% of human carcinoma SKOV3 cell lines; type: functional, cell-based
[2] = molecular target: Telomerase reverse transcriptase (Homo sapiens, UniProt O14746); test: Concentration required to inhibit 50% of telomerase activity
Telomerase reverse transcriptase, sequence (O14746 whole entry): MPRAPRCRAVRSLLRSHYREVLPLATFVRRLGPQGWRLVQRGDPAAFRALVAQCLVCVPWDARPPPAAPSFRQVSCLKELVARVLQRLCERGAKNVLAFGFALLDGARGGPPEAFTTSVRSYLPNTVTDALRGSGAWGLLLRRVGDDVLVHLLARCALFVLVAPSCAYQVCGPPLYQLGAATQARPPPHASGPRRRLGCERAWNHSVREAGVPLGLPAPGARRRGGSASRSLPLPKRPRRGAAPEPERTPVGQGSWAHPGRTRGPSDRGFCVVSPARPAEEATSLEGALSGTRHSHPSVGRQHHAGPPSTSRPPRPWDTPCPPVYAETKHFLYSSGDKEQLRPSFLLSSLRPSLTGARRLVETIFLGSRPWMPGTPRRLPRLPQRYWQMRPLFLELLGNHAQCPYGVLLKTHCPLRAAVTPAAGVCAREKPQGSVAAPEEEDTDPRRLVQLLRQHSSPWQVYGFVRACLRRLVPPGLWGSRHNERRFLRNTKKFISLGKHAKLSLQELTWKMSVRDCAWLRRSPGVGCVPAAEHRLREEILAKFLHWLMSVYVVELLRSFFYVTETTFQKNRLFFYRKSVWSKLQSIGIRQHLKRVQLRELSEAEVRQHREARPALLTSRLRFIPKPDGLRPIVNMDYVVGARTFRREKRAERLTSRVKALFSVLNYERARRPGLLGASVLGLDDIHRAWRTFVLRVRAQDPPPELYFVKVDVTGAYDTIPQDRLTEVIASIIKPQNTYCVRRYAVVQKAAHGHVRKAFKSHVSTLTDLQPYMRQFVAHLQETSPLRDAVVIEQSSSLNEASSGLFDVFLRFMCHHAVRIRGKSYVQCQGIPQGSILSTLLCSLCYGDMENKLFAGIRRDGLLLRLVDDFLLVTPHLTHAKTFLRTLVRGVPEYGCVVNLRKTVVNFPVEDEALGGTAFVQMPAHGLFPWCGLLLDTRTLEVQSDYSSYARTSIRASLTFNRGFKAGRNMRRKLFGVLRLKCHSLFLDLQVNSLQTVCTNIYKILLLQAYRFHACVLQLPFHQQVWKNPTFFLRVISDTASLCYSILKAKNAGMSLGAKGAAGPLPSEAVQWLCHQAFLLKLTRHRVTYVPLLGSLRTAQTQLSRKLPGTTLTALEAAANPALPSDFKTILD

| Compound | IC50 [1] [µM] | IC50 (A2780) [µM] | IC50 (SK-OV-3) [µM] | EC50 [2] [µM] |
| --- | --- | --- | --- | --- |
| CCN(CC)c1ccc2cc3ccc(N(CC)CC)cc3nc2c1 | 2.5 | 0.6 | 2.3 | 5.8 |
| CN1CCN(CCC(=O)Nc2ccc3nc4ccc(NC(=O)CCN5CCN(C)CC5)cc4c(O)c3c2)CC1 | > 25 | > 25 | > 25 | 1.9 |
| CC[n+]1c(-c2ccccc2)c2cc(N)ccc2c2ccc(N)cc21 [HOMIDIUM BROMIDE] | 0.4 | 0.1 | 4.5 |  |
| CCN(CC)CCC(=O)Nc1ccc2c(O)c3cc(NC(=O)CCN(CC)CC)ccc3nc2c1 | 25 | 16 | 25 | 0.7 |
| c1cc2cc3ccc(N4CCCCC4)cc3nc2cc1N1CCCCC1 | 2.3 | 1.7 | 0.5 | 2.8 |
| c1cc2cc3ccc(N4CCCC4)cc3nc2cc1N1CCCC1 | 8.2 | 27 | 2.6 | 5.2 |
| CCN(CC)CCC(=O)Nc1ccc2c(O)c3ccc(NC(=O)CCN(CC)CC)cc3nc2c1 | > 25 | > 25 | > 25 | 5.7 |
| O=C(CCN1CCC(O)CC1)Nc1ccc2nc3ccc(NC(=O)CCN4CCC(O)CC4)cc3c(O)c2c1 | > 25 | > 25 | > 25 | 2.3 |
| CN(C)CCC(=O)Nc1ccc2c(O)c3ccc(NC(=O)CCN(C)C)cc3nc2c1 | > 25 | > 25 | > 25 | 4.3 |
| CN(C)CCC(=O)Nc1ccc2nc3ccc(NC(=O)CCN(C)C)cc3c(O)c2c1 | > 25 | > 25 | > 25 | 0.6 |

Second part, the compound after the results:

| IC50 [1] [µM] | IC50 (A2780) [µM] | IC50 (SK-OV-3) [µM] | EC50 [2] [µM] | Compound |
| --- | --- | --- | --- | --- |
| 25 | 3.5 | 25 | 0.2 | O=C(CCN1CCC(O)CC1)Nc1ccc2c(O)c3cc(NC(=O)CCN4CCC(O)CC4)ccc3nc2c1 |
| 11 | 11.8 | 10.5 | 1.9 | CCN1CCN(CCC(=O)Nc2ccc3c(O)c4ccc(NC(=O)CCN5CCN(CC)CC5)cc4nc3c2)CC1 |
| 25 | 11.2 | 25 | 0.2 | O=C(CCN1CCCCC1CO)Nc1ccc2c(O)c3cc(NC(=O)CCN4CCCCC4CO)ccc3nc2c1 (centres undefined) |
| 3 | 3 | 5.6 | 1.7 | CC1CCN(CCC(=O)Nc2ccc3c(O)c4ccc(NC(=O)CCN5CCC(C)CC5)cc4nc3c2)CC1 |
| 25 | 5.6 | 25 | 0.4 | O=C(CCN1CCCCC1)Nc1ccc2c(O)c3cc(NC(=O)CCN4CCCCC4)ccc3nc2c1 |
| > 25 | > 25 | > 25 | 5.8 | O=C(CCN1CCCC1)Nc1ccc2nc3ccc(NC(=O)CCN4CCCC4)cc3c(O)c2c1 |
| 11 | 13 | 10.5 | 2.3 | CC1CCCCN1CCC(=O)Nc1ccc2c(O)c3ccc(NC(=O)CCN4CCCCC4C)cc3nc2c1 (centres undefined) |
| > 25 | > 25 | > 25 | 4.9 | O=C(CCN1CCOCC1)Nc1ccc2c(O)c3ccc(NC(=O)CCN4CCOCC4)cc3nc2c1 |
| 13 | 19 | 21 | 5.9 | O=C(CCN1CCCCC1)Nc1ccc2c(O)c3ccc(NC(=O)CCN4CCCCC4)cc3nc2c1 |
| 25 | > 25 | 25 | 0.2 | CC1CCN(CCC(=O)Nc2ccc3c(O)c4cc(NC(=O)CCN5CCC(C)CC5)ccc4nc3c2)CC1 |
| > 25 | > 25 | > 25 | 1.9 | O=C(CCN1CCCCC1)Nc1ccc2nc3ccc(NC(=O)CCN4CCCCC4)cc3c(O)c2c1 |
| > 25 | > 25 | > 25 | 2.3 | CC1CCCCN1CCC(=O)Nc1ccc2nc3ccc(NC(=O)CCN4CCCCC4C)cc3c(O)c2c1 (centres undefined) |
| > 25 | > 25 | > 25 | 8.1 | O=C(CCN1CCCC1)Nc1ccc2c(O)c3ccc(NC(=O)CCN4CCCC4)cc3nc2c1 |
| 11.8 | 13 | 12 | 2.3 | CCC1CCCCN1CCC(=O)Nc1ccc2c(O)c3ccc(NC(=O)CCN4CCCCC4CC)cc3nc2c1 (centres undefined) |
| > 25 | > 25 | > 25 | 1.7 | O=C(CCN1CCC(O)CC1)Nc1ccc2c(O)c3ccc(NC(=O)CCN4CCC(O)CC4)cc3nc2c1 |

Source: ChEMBL document CHEMBL1137062, “Evaluation of by disubstituted acridone derivatives as telomerase inhibitors: the importance of G-quadruplex binding” (Bioorg Med Chem Lett, 2004)
